Test results from patent US12527886B2, “Radiopharmaceuticals and composition for thrombus imaging” (THE ASAN FOUNDATION, priority 2020, dated 2026).

How the values were obtained:
glycoprotein IIb/IIIa = target: T1, glycoprotein IIb/IIIa (Rattus norvegicus, UniProt A0A8I6GGN2+Q8R2H2); test: Glycoprotein IIb/IIIa specific uptake in thrombotic disease model, gamma counter / microSPECT; type: in vivo, rats
T1 construct: a disease model in which a thrombus was formed with glycoprotein IIb/IIIa overexpressed; from tissue; host or cells: in vivo rat carotid artery thrombus (ferric chloride model)
T1 sequence (A0A8I6GGN2 32-1037): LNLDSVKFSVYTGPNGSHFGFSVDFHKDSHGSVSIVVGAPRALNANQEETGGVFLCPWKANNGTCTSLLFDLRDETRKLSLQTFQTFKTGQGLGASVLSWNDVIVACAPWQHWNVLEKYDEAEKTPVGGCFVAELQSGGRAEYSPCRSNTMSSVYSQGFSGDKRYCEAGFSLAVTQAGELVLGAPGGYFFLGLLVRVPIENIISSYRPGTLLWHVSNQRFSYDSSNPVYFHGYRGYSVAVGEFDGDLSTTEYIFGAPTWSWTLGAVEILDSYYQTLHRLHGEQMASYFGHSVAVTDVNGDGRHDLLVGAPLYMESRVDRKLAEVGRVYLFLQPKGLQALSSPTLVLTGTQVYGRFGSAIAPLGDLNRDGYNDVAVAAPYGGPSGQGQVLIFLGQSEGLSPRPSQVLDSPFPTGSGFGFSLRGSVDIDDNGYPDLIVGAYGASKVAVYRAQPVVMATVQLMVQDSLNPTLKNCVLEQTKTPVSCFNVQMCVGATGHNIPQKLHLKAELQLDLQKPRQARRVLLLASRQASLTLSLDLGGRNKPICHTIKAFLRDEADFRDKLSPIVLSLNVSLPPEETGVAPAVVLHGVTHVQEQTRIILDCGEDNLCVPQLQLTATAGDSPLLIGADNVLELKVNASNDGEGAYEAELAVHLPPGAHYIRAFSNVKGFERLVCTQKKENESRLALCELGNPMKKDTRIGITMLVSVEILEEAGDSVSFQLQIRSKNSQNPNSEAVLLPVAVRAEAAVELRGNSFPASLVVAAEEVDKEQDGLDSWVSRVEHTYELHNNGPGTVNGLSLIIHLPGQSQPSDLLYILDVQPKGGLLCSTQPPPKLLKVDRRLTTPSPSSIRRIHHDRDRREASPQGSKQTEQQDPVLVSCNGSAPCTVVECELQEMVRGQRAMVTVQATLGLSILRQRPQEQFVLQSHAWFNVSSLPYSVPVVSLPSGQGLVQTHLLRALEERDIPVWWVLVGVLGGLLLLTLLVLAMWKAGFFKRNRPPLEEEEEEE
T1 sequence (Q8R2H2 26-787): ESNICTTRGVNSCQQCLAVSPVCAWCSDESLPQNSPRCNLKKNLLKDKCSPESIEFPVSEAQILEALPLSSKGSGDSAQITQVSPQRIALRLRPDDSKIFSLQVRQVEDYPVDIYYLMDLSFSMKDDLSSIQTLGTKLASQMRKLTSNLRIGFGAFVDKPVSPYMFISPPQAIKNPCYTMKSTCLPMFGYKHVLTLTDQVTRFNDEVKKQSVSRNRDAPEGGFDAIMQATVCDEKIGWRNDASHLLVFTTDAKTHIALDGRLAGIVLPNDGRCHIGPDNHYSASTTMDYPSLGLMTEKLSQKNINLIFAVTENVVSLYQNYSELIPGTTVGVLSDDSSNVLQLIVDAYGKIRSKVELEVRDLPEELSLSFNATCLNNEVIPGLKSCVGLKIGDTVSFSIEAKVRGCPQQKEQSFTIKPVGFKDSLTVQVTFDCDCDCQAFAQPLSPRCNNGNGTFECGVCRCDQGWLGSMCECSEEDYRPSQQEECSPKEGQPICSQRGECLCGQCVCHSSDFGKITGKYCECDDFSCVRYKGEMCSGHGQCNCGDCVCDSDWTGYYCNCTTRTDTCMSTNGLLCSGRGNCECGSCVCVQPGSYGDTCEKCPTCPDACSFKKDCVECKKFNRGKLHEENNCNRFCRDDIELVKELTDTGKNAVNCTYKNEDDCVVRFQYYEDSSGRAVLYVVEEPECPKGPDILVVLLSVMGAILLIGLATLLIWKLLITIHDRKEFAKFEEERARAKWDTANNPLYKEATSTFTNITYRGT
Text: After 6-week-old rats were anesthetized to make a thrombotic disease model, the carotid artery was secured by opening the skin on the carotid artery side. Then, a filter paper soaked with a 5% ferric chloride solution was exposed on the artery, and then washed three times or more with physiological saline, and the incised skin was sutured again to make a model. […]

[1] = Stability of Tc-99m labeled compound by radioTLC; type: physicochemical; conditions: for Eluent A / Eluent B: in % (unit assumed)
Method: (§1) After 2.0 mg of GP-104 was dissolved in 1.8 mL of water for injection and 0.2 mL of ethanol, the resulting solution was allowed to stand with a pH of about 5 at room temperature for 10 minutes when 20 μL of SnCl2 (15 mg/mL) and 2 mL of Tc-99m were added thereto, and the reaction was terminated by adjusting the pH to 7 using a NaOH solution. Stability up to 4 hours was confirmed by radioTLC under conditions of pH 5 and pH 7, respectively, and the results are summarized in the following Table 1. (TLC analysis conditions: iTLC was used, Eluent A: methyl ethyl ketone 100%, Eluent B: pyridine:acetic acid:purified water=3:5:15, and purity calculation: Eluent A−Eluent B)
as §1, with “ethanol, pH was adjusted to about 5 and” for “ethanol,”, “stand” for “stand with a pH of about 5”, “(15 mg/mL), 20 μL of cysteine (10” for “(15”, “Table 2.” for “Table 1.”
(§2) After 2.0 mg of GP-105 was dissolved in 1.8 mL of water for injection and 0.2 mL of ethanol, the pH was adjusted to about 5 and the resulting solution was allowed to stand at room temperature for 10 minutes when 20 μL of SnCl2 (15 mg/mL) and 2 mL of Tc-99m were added thereto, and the reaction was terminated by adjusting the pH to 7 using a NaOH solution. Stability until 4 hours under conditions of pH 5 and pH 7 was each confirmed by radioTLC. (TLC analysis conditions: iTLC was used, Eluent A: methyl ethyl ketone 100%, Eluent B: pyridine:acetic acid:purified water=3:5:15, and purity calculation: Eluent A−Eluent B)
as §2, with “ethanol,” for “ethanol, the”, “(15 mg/mL), 20 μL of cysteine (10” for “(15”

[2] = gamma counter, sacrificed at the 2nd hour
[3] = Ex 4-1, no cysteine, pH 5, 0 hour
[4] = Ex 4-1, no cysteine, pH 5, 0.5 hours
[5] = Ex 4-1, no cysteine, pH 5, 1.0 hour
[6] = Ex 4-1, no cysteine, pH 5, 1.5 hours
[7] = Ex 4-1, no cysteine, pH 5, 2.0 hours
[8] = Ex 4-1, no cysteine, pH 5, 3.0 hours
[9] = Ex 4-1, no cysteine, pH 5, 4.0 hours
[10] = Ex 4-1, no cysteine, pH 7, 0 hour
[11] = Ex 4-1, no cysteine, pH 7, 0.5 hours
[12] = Ex 4-1, no cysteine, pH 7, 1.0 hour
[13] = Ex 4-1, no cysteine, pH 7, 1.5 hours
[14] = Ex 4-1, no cysteine, pH 7, 2.0 hours
[15] = Ex 4-1, no cysteine, pH 7, 3.0 hours
[16] = Ex 4-1, no cysteine, pH 7, 4.0 hours
[17] = Ex 4-2, cysteine, pH 5, 0.5 hours
[18] = Ex 4-2, cysteine, pH 5, 1.0 hour
[19] = Ex 4-2, cysteine, pH 5, 1.5 hours
[20] = Ex 4-2, cysteine, pH 5, 2.0 hours
[21] = Ex 4-2, cysteine, pH 5, 3.0 hours
[22] = Ex 4-2, cysteine, pH 5, 4.0 hours
[23] = Ex 4-2, cysteine, pH 7, 0.5 hours
[24] = Ex 4-2, cysteine, pH 7, 1.0 hour
[25] = Ex 4-2, cysteine, pH 7, 1.5 hours
[26] = Ex 4-2, cysteine, pH 7, 2.0 hours
[27] = Ex 4-2, cysteine, pH 7, 3.0 hours
[28] = Ex 4-2, cysteine, pH 7, 4.0 hours

SMILES: O=C(O)C[C@H](NC(=O)[C@@H]1CCCN(C(=O)CCC2CCNCC2)C1)c1cncc(OCCNC(=O)CN2CC(=O)[O][99Tc-]3([O]C(=O)C2)[O]C(=O)CN(CC(=O)NCCOc2cncc([C@H](CC(=O)O)NC(=O)[C@@H]4CCCN(C(=O)CCC5CCNCC5)C4)c2)CC(=O)[O]3)c1 [[Tc-99m]GP-105]
- specific uptake in the disease model (glycoprotein IIb/IIIa): high specific uptake
- target to non target ratio (glycoprotein IIb/IIIa; gamma counter, 2nd hour): 2.7
- counts per minute (CPM)/g value, left artery (glycoprotein IIb/IIIa; [2]): 23.5 CPM/g
- counts per minute (CPM)/g value, right artery (glycoprotein IIb/IIIa; [2]): 63.9 CPM/g
- background radioactivity excretion (glycoprotein IIb/IIIa; microSPECT until 4 hours): quick background radioactivity excretion effect
- Purity [1, 3]: 82.93%
- Eluent A [1, 3]: 100
- Eluent B [1, 3]: 17.07
- Purity [1, 4]: 72.53%
- Eluent A [1, 4]: 95.67
- Eluent B [1, 4]: 23.14
- Purity [1, 5]: 73.13%
- Eluent A [1, 5]: 97.07
- Eluent B [1, 5]: 23.94
- Purity [1, 6]: 71.23%
- Eluent A [1, 6]: 94.54
- Eluent B [1, 6]: 23.31
- Purity [1, 7]: 60.81%
- Eluent A [1, 7]: 93.25
- Eluent B [1, 7]: 32.44
- Purity [1, 8]: 60.99%
- Eluent A [1, 8]: 80.67
- Eluent B [1, 8]: 19.68
- Purity [1, 9]: 57.11%
- Eluent A [1, 9]: 82.64
- Eluent B [1, 9]: 25.53
- Purity [1, 10]: 82.93%
- Eluent A [1, 10]: 100
- Eluent B [1, 10]: 17.07
- Purity [1, 11]: 65.63%
- Eluent A [1, 11]: 90.76
- Eluent B [1, 11]: 25.13
- Purity [1, 12]: 60.37%
- Eluent A [1, 12]: 85.38
- Eluent B [1, 12]: 25.01
- Purity [1, 13]: 58.73%
- Eluent A [1, 13]: 95.97
- Eluent B [1, 13]: 37.24
- Purity [1, 14]: 54.3%
- Eluent A [1, 14]: 96.17
- Eluent B [1, 14]: 41.87
- Purity [1, 15]: 54.12%
- Eluent A [1, 15]: 94
- Eluent B [1, 15]: 39.88
- Purity [1, 16]: 40.17%
- Eluent A [1, 16]: 85.5
- Eluent B [1, 16]: 45.33
- Purity ([1]; Ex 4-2, cysteine, pH 5, 0 hour): 82.93%
- Eluent A ([1]; Ex 4-2, cysteine, pH 5, 0 hour): 100
- Eluent B ([1]; Ex 4-2, cysteine, pH 5, 0 hour): 17.07
- Purity [1, 17]: 92.37%
- Eluent A [1, 17]: 100
- Eluent B [1, 17]: 7.63
- Purity [1, 18]: 76.25%
- Eluent A [1, 18]: 89.07
- Eluent B [1, 18]: 12.82
- Purity [1, 19]: 87.74%
- Eluent A [1, 19]: 100
- Eluent B [1, 19]: 12.26
- Purity [1, 20]: 38.64%
- Eluent A [1, 20]: 57.3
- Eluent B [1, 20]: 18.66
- Purity [1, 21]: 77.6%
- Eluent A [1, 21]: 97.4
- Eluent B [1, 21]: 19.8
- Purity [1, 22]: 76.51%
- Eluent A [1, 22]: 98.31
- Eluent B [1, 22]: 21.8
- Purity ([1]; Ex 4-2, cysteine, pH 7, 0 hour): 90.38%
- Eluent A ([1]; Ex 4-2, cysteine, pH 7, 0 hour): 100
- Eluent B ([1]; Ex 4-2, cysteine, pH 7, 0 hour): 9.62
- Purity [1, 23]: 92.28%
- Eluent A [1, 23]: 98.65
- Eluent B [1, 23]: 6.37
- Purity [1, 24]: 85.19%
- Eluent A [1, 24]: 98.4
- Eluent B [1, 24]: 13.21
- Purity [1, 25]: 91.63%
- Eluent A [1, 25]: 97.22
- Eluent B [1, 25]: 5.59
- Purity [1, 26]: 89.39%
- Eluent A [1, 26]: 95.62
- Eluent B [1, 26]: 6.23
- Purity [1, 27]: 90.09%
- Eluent A [1, 27]: 100
- Eluent B [1, 27]: 9.91
- Purity [1, 28]: 96.79%
- Eluent A [1, 28]: 100
- Eluent B [1, 28]: 3.21
- Purity ([1]; addition of cysteine, pH of 5 (Table 8)): ≥ 70%
- Purity ([1]; addition of cysteine, pH of 7 (Table 8)): ≥ 90%
- maximum purity ([1]; no cysteine, pH 5 and pH 7 (text to Table 7)): 82.93%
